One assay addresses ILY (Streptococcus intermedius, UniProt Q9LCB8). Nature of the assay: biochemical. The class given is binding.
The target in assay [1] is T1, SLO (Streptococcus pyogenes serotype M1, UniProt P0C0I3). Nature of the assay: biochemical. The format is binding.
A further assay addresses PFO (Clostridium perfringens, UniProt P0C2E9). The experiment in a line: biochemical. The format is binding.
For a further assay, the target named is SLY D4 (Streptococcus suis, UniProt Q55996). The format is binding.
The next assay addresses SLY (Streptococcus suis, UniProt Q55996). The format is binding.
Another assay has as its target Ply (Streptococcus pneumoniae, UniProt Q7ZAK5). Nature of the assay: biochemical. The format is binding.
The target in assay [2] is recombinant human I-domain (Homo sapiens, UniProt P11215). The format is binding.
Sequence of recombinant human I-domain (P11215 150-328): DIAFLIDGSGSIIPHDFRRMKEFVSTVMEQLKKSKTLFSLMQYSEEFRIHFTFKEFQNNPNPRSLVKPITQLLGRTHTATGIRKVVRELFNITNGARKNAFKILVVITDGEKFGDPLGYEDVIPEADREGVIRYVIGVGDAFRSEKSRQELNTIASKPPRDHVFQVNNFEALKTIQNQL
In assay [3] the target is T1, SLO. The format is cell-based.
The target in the next assay is LLO (Listeria monocytogenes serovar 1/2a, UniProt P13128). The class given is binding.
Sequence of LLO (P13128 25-529 limits assumed): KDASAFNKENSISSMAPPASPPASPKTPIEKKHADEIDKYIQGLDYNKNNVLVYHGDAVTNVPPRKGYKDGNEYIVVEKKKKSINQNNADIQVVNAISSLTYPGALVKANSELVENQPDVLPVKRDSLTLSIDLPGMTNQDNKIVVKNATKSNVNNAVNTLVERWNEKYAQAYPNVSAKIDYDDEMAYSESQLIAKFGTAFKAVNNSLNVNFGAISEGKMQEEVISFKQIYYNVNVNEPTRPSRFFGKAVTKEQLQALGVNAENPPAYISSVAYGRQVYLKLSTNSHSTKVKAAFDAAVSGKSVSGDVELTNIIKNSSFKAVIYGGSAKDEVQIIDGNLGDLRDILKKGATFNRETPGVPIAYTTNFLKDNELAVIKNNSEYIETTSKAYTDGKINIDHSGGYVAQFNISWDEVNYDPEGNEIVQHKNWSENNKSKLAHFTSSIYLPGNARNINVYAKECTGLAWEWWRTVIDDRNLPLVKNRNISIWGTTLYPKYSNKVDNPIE

In general, pKd refers to −log10 of the Kd, conventionally taken in molar units.

pKd: −log10 of the molar value. Where two headings read alike, the source gives them in different places.

Sequence of Ply (Q7ZAK5 whole entry, looked up): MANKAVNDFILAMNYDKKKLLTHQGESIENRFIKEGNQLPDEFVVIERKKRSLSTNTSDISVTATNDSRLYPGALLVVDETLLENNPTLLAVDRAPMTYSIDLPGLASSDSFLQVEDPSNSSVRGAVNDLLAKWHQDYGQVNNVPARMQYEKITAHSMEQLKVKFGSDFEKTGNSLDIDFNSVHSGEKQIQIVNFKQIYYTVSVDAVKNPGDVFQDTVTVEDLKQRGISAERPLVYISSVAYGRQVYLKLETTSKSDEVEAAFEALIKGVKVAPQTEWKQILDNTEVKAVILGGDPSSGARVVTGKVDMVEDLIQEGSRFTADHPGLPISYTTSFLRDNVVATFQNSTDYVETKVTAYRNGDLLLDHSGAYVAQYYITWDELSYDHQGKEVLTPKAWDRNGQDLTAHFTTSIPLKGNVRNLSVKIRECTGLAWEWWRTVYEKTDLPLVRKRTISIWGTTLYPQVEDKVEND
Sequence of PFO (P0C2E9 29-500 limits assumed): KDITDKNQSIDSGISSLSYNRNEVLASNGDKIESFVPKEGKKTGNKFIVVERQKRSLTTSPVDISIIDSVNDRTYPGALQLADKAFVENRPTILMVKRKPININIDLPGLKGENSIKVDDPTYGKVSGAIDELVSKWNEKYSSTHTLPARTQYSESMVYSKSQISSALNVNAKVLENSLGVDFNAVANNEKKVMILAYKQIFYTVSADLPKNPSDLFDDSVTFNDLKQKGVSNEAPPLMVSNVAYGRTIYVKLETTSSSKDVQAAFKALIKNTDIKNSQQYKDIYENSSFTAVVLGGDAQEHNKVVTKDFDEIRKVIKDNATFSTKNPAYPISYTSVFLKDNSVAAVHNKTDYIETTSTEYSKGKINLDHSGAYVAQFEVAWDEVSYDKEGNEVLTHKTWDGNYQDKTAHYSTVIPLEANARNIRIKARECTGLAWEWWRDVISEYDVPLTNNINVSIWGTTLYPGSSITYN
T1 sequence (P0C0I3 34-571 limits assumed): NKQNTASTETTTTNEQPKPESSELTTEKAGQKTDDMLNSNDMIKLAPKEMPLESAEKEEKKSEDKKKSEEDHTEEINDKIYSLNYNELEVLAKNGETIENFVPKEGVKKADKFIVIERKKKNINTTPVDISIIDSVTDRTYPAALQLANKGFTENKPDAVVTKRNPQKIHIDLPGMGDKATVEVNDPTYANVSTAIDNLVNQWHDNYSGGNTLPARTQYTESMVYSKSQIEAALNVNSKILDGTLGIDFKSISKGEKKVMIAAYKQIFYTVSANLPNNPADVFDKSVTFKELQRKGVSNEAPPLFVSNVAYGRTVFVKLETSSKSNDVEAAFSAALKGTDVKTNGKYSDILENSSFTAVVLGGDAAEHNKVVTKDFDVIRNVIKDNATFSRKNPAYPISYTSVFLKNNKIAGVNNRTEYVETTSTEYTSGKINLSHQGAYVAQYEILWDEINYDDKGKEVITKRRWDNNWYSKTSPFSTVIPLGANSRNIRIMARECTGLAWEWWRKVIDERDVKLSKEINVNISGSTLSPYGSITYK

In the case of `CC(=O)N[C@H]1[C@H](O[C@H]2[C@@H](O)[C@@H](CO)O[C@@H](O[C@H]3[C@H](O)[C@@H](O)C(O)O[C@@H]3CO)[C@@H]2O)O[C@H](CO)[C@@H](O[C@@H]2O[C@H](CO)[C@H](O)[C@H](O)[C@H]2O)[C@@H]1O` (mixture of isomers) [LNnT, lacto-N-neotetraose], the values for the pKd on ILY, on SLO [1] and on PFO were 5.31, 9.03 and 5.55, respectively.
Take `C[C@@H]1O[C@@H](O[C@H]2C(O)O[C@H](CO)[C@H](O)[C@@H]2O)[C@@H](O)[C@H](O)[C@@H]1O` (stereo partly shown) [BGH di, blood group H antigen disaccharide]: the figures for the pKd at SLO [1], on SLY D4 and on SLY were 6.22, 4.59 and 4.72, respectively.
Take `O=C[C@H](O)[C@@H](O)[C@H](O[C@@H]1O[C@H](CO)[C@@H](O)[C@H](O)[C@H]1O)[C@H](O)CO` [Cellobiose]: the pKd on PFO (KD) is 4.47.
`CC(C)CCC[C@@H](C)[C@H]1CC[C@H]2[C@@H]3CC=C4C[C@@H](O)CC[C@]4(C)[C@H]3CC[C@]12C` [Cholesterol]: the pKd at SLO [1] (KD) was 6.72; on PFO (KD), 6.53; at Ply (KD), 6.00.
As to `CC(=O)[C@H]1CC[C@H]2[C@@H]3CC=C4C[C@@H](O)CC[C@]4(C)[C@H]3CC[C@]12C` [pregnenolone], the “binding in SPR drug library screen” value at SLO [1] is recorded as “binds”. In addition, on Ply, the pKd was roughly 9.40 and the “binding in SPR drug library screen” value is recorded as “binds”.
As to `CC(=O)N[C@H]1[C@H]([C@H](O)[C@H](O)CO)O[C@@](O[C@H]2[C@@H](O)[C@@H](CO)O[C@@H](O[C@@H]([C@H](O[C@@H]3O[C@@H](C)[C@@H](O)[C@@H](O)[C@@H]3O)[C@H](C=O)NC(C)=O)[C@H](O)CO)[C@@H]2O)(C(=O)O)C[C@@H]1O` [sLeX, sialyl-Lewis X], the pKd was 5.55 on ILY (KD), 5.51 on SLO [1] (KD), 5.41 on PFO (KD) and 5.89 on Ply (KD).
As to “Ply: pneumolysin, CDC toxin from Streptococcus pneumoniae, recombinant His-tagged”, in assay [2], the pKd was 7.65.
In the case of pregnenolone sulfate (sodium salt) [PS], at SLO [3], the “effect on SLO hemolytic activity” value is on record as “inhibit”. For the same compound, the “competition with cholesterol (competitive SPR)” value at LLO, on SLO [1] and on Ply was “compete directly” throughout.

The values are drawn from paper PMC7244308 (Science Advances, 2020).
